From patent publication US20110136728A1, “METHODS OF INCREASING BONE FORMATION USING LEPTIN-RELATED PEPTIDES” (priority 2009, published 2011)
“Also recorded” adds a separate entry of the source. Non-standard residues stand in square brackets, D forms with d. Residues, ends and D or L forms follow the SMILES beside them.

Tests used:
[1] = system: ob/ob mouse model; details: Grasso et al., Regu. Pept. 101:123-129 (2001); cited from earlier work
[2] = system: male C57BL/6J wild type mice; assay: Oral delivery (gavage) in ad libitum fed wild type mice: body weight, food and water intake, serum glucose, serum osteocalcin; format: in vivo, mouse
Procedure: (§1) Six week-old male C57BL/6J wild type and ob/ob mice were obtained from Jackson Laboratories (Bar Harbor, Me., USA). The animals were housed individually polycarbonate cages fitted with stainless steel wire lids and air filters, and supported on ventilated racks (Thoren Caging Systems, Hazelton, Pa., USA) in the Albany Medical College Animal Resources Facility. The mice were maintained at a constant temperature (24° C.) with lights on from 07:00 to 19:00, and allowed food and water ad libitum for 6 days following arrival. During the test period, mice were fed ad libitum or calorie restricted to 60% of normal. Water intake was allowed ad libitum.
(§2) On day 1 of the study, and on each day thereafter, a water bottle containing 200 ml of water was added to each cage between 09:00 and 10:00 h. Mice fed ad libitum were given 200 g of pelleted rodent diet (Prolab Rat, Mouse, Hamster 3000, St. Louis, Mo.; 22% crude protein, 5% crude fat, 5% fiber, 6% ash, 2.5% additional minerals) between 09:00 and 10:00 h each day. The mice were weighed once daily between 09:00 and 10:00 h on an Acculab V-333 electronic balance (Cole-Parmer, Vernon Hills, Ill., USA). Calorie-restricted wild type and ob/ob mice received 60% of normal daily intake. Twenty four hours later, food and water remaining in the cages was measured to the nearest 0.1 g and 0.1 ml, respectively. To assure fasting glucose levels on days in which blood glucose was measured, food was removed from the cages between 09:00 and 10:00 h, and replaced immediately before the beginning of the dark cycle.
(§3) Mouse [D-Leu-4]OB3 was prepared commercially as a C-terminal amide by Bachem (Torrance, Calif., USA). The peptide was dissolved in 0.3% Intravail A3® (Aegis Therapeutics, San Diego, Calif. USA) reconstituted in water, and administered by gavage once daily for 10 days at a concentration of 1 mg/200 μl immediately before the start of the dark cycle. Is has previously been shown that this is the optimum concentration of mouse [D-Leu-4]-OB3 and its related bioactive peptide amides, for regulating energy expenditure, glucose levels, and insulin sensitivity in two genetically obese mouse models (see Rozhayskaya-Arena M. et al., Endocrinology 141:2501-2517 (2000); Grasso P. et al. Regulatory Pep. 101:123-129 (2001); Grasso P. et al., Diabetes 48:2204-2209 (1999), Grasso P. et al., Endocrinology 138:1413-1418 (1997); Grasso P. et al., Regulatory Peptides 85:93-100 (1999); and Grasso P. et al., Diabetes 48:2204-2209 (1999)). Vehicle injected control mice received 200 ul of Intravail A3® only.
(§4) Initial blood samples were drawn by snipping the end of the tail of each mouse at the beginning of the study (day 0); subsequent samples were obtained by gently removing the scab. Blood was taken 1 h before the onset of the dark period at the beginning of the study, and after 2, 4, 6, 8, and 10 days of treatment. The blood was applied to a test strip, and glucose levels were measured with a Glucometer Elite glucose meter (Bayer, Elkhart, Ind., USA).
(§5) At the end of the study, the mice were anesthetized with isoflurane (5%) and exsanguinated by cardiac puncture. Euthanasia was confirmed by cervical dislocation. The blood was collected in sterile nonheparinized plastic centrifuge tubes and allowed to stand at room temperature for 1 h. The clotted blood was rimmed from the walls of the tubes with sterile wooden applicator sticks. Individual serum samples were prepared by centrifugation for 30 min at 2600×g in an Eppendorf 5702R, A-4-38 rotor (Eppendorf North America, Westbury, N.Y., USA). The serum samples in each experimental group (n=6) were pooled and stored frozen until assayed for osteocalcin content.
(§6) Serum osteocalcin in the pooled samples was assayed in triplicate with a mouse osteocalcin ELISA kit obtained from Biomedical Technologies, Inc. (Stoughton, Mass., USA) according to the instructions supplied by the manufacturer. […]

[3] = system: male C57BL/6J ob/ob mice; assay: Oral delivery (gavage) in ad libitum fed ob/ob mice: body weight, food and water intake, serum glucose, serum osteocalcin; format: in vivo, mouse
Procedure: as §1, §2, §3, §4, §5, §6

[4] = 1 mg/day, 10 days, gavage in Intravail
[5] = ob/ob, ad libitum fed, 1 mg/day, 10 days, gavage in Intravail
[6] = ob/ob, ad libitum fed, 10 days gavage
[7] = ob/ob, ad libitum fed, oral delivery

CC(C)C[C@@H](NC(=O)[C@H](CO)NC(=O)[C@H](CS)NC(=O)[C@@H](N)CO)C(=O)N1CCC[C@H]1C(=O)N[C@@H](CCC(N)=O)C(=O)N[C@H](C(N)=O)[C@@H](C)O [mouse [D-Leu-4]-OB3] (H-SCS[dL]PQT-NH2; N-terminus assumed)
tissue sensitivity to insulin [1]: increases tissue sensitivity to insulin
Body weight (% of initial) [2, 4]: 95.6 ± 0.5 % of initial
Final body weight [2, 4]: 21.6 ± 0.7 g
Serum osteocalcin [2, 4]: 246.6 ± 6.0 ng/mL
daily food intake compared to Intravail treated controls ([2]; 10 days gavage): not associated with any significant difference in daily food intake
serum glucose after treatment ([2]; 10 days gavage): significantly (P<0.001) reduced
serum osteocalcin levels compared to Intravail treated controls ([2]; 10 days gavage): essentially the same; also recorded: slightly elevated
water intake compared to Intravail treated controls ([2]; 10 days gavage): essentially the same; also recorded: no significant difference in water intake
loss of initial body weight ([2]; after 10 days gavage): 4.4%
Final serum glucose ([2]; after 10 days, 1 mg/day gavage in Intravail): 124.5 ± 24.6 mg/dL
Initial serum glucose ([2]; day 0): 173.3 ± 7.3 mg/dL
Initial body weight ([2]; day 0, 1 mg/day, 10 days, gavage in Intravail): 22.6 ± 0.8 g
reduction of body weight gain ([2]; oral delivery): 4.4%
reduction of food intake ([2]; oral delivery): 6.8%
reduction of serum glucose ([2]; oral delivery): 28.2%
serum osteocalcin relative to wild type control mice ([3]; ob/ob mice): significantly elevated serum osteocalcin to levels higher than those seen in wild type control mice
Body weight (% of initial) [3, 5]: 96.3 ± 0.4 % of initial
Final body weight [3, 5]: 34.2 ± 0.9 g
Serum osteocalcin [3, 5]: 300.5 ± 7.0 ng/mL
daily food intake compared to Intravail alone [3, 6]: significantly (P<0.001) less
daily water consumption compared to Intravail treated counterparts [3, 6]: significantly (P<0.05) less water per day
serum glucose after treatment [3, 6]: significantly (P<0.001) reduced serum glucose levels, but not to normal levels
loss of initial body weight ([3]; ob/ob, ad libitum fed, after 10 days gavage): 3.7%
Final serum glucose ([3]; ob/ob, ad libitum fed, after 10 days, 1 mg/day gavage in Intravail): 380.5 ± 24.3 mg/dL
Initial serum glucose ([3]; ob/ob, ad libitum fed, day 0): 503.9 ± 19.6 mg/dL
Initial body weight ([3]; ob/ob, ad libitum fed, day 0, 1 mg/day, 10 days, gavage in Intravail): 35.5 ± 0.8 g
reduction of body weight gain [3, 7]: 11.6%
reduction of food intake [3, 7]: 16.5%
reduction of serum glucose [3, 7]: 24.4%
reduction of water intake [3, 7]: 22.4%
